Source: ChEMBL document CHEMBL4507275, “Data for DCP probe BI-2545” (2021)

Experiments:
[1] = biological target: Glycogen synthase kinase-3 alpha (Homo sapiens) (UniProt P49840); conditions: Compound concentration 1000.0 nM
[2] = biological target: Mitogen-activated protein kinase kinase kinase 9 (Homo sapiens) (UniProt P80192); conditions: Compound concentration 1000.0 nM
[3] = system: Epidermal growth factor receptor (Homo sapiens), P00533 [L858R]; conditions: Compound concentration 1000.0 nM
[4] = biological target: Mitogen-activated protein kinase kinase kinase 3 (Homo sapiens) (UniProt Q99759); conditions: Compound concentration 1000.0 nM
[5] = biological target: Aurora kinase C (Homo sapiens) (UniProt Q9UQB9); conditions: Compound concentration 1000.0 nM
[6] = system: ALK tyrosine kinase receptor (Homo sapiens), Q9UM73 [C1156Y]; conditions: Compound concentration 1000.0 nM
[7] = biological target: Tyrosine-protein kinase TXK (Homo sapiens) (UniProt P42681); conditions: Compound concentration 1000.0 nM
[8] = biological target: LIM domain kinase 2 (Homo sapiens) (UniProt P53671); conditions: Compound concentration 1000.0 nM
[9] = system: Tyrosine-protein kinase ABL1 (Homo sapiens), P00519 [F317L]; conditions: Compound concentration 1000.0 nM
[10] = biological target: Mitogen-activated protein kinase kinase kinase 2 (Homo sapiens) (UniProt Q9Y2U5); conditions: Compound concentration 1000.0 nM
[11] = biological target: Activin receptor type-1B (Homo sapiens) (UniProt P36896); conditions: Compound concentration 1000.0 nM
[12] = system: Leucine-rich repeat serine/threonine-protein kinase 2 (Homo sapiens), Q5S007 [G2019S]; conditions: Compound concentration 1000.0 nM
[13] = system: Epidermal growth factor receptor (Homo sapiens), P00533 [L861Q]; conditions: Compound concentration 1000.0 nM
[14] = biological target: Beta-adrenergic receptor kinase 1 (Homo sapiens) (UniProt P25098); conditions: Compound concentration 1000.0 nM
[15] = biological target: Phosphatidylinositol 4-phosphate 5-kinase type-1 gamma (Homo sapiens) (UniProt O60331); conditions: Compound concentration 1000.0 nM
[16] = biological target: Uncharacterized serine/threonine-protein kinase SBK3 (Homo sapiens) (UniProt P0C264); conditions: Compound concentration 1000.0 nM
[17] = system: Mast/stem cell growth factor receptor Kit (Homo sapiens), P10721 [A829P]; conditions: Compound concentration 1000.0 nM
[18] = biological target: Serine/threonine-protein kinase MRCK alpha (Homo sapiens) (UniProt Q5VT25); conditions: Compound concentration 1000.0 nM
[19] = biological target: Mu-type opioid receptor (Homo sapiens) (UniProt P35372); conditions: Compound concentration 10.0 uM
[20] = biological target: STE20-like serine/threonine-protein kinase (Homo sapiens) (UniProt Q9H2G2); conditions: Compound concentration 1000.0 nM
[21] = biological target: Activin receptor type-2A (Homo sapiens) (UniProt P27037); conditions: Compound concentration 1000.0 nM
Chain of Activin receptor type-2A (Homo sapiens) (P27037 whole entry): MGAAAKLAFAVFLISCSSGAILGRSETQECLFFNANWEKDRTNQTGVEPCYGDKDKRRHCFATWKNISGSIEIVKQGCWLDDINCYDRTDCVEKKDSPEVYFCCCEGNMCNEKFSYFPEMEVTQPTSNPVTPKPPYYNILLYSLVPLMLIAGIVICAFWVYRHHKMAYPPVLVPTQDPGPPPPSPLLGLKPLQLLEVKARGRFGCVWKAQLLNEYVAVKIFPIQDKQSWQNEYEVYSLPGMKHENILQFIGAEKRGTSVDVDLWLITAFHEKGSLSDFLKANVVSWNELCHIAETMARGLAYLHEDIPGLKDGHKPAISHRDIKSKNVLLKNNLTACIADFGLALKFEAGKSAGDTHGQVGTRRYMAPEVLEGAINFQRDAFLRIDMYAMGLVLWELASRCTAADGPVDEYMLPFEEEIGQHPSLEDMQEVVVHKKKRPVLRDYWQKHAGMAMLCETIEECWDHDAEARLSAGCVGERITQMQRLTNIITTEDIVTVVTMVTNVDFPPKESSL

[22] = biological target: Aurora kinase B (Homo sapiens) (UniProt Q96GD4); conditions: Compound concentration 1000.0 nM
[23] = biological target: Serine/threonine-protein kinase 38-like (Homo sapiens) (UniProt Q9Y2H1); conditions: Compound concentration 1000.0 nM
Chain of Serine/threonine-protein kinase 38-like (Homo sapiens) (Q9Y2H1 2-464 limits assumed): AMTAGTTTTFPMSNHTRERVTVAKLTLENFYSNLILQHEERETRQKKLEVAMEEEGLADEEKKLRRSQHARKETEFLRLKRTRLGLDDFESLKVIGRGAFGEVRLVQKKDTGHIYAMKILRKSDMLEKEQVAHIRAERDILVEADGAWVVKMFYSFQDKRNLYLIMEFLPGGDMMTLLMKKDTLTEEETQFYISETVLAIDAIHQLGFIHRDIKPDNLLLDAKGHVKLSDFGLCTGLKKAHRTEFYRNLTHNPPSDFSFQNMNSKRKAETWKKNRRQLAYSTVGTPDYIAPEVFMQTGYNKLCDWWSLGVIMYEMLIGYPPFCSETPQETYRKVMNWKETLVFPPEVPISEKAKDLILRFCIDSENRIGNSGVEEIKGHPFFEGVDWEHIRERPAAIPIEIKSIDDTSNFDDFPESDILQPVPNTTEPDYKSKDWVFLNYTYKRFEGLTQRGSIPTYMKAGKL

[24] = biological target: Tyrosine-protein kinase Fyn (Homo sapiens) (UniProt P06241); conditions: Compound concentration 1000.0 nM
Chain of Tyrosine-protein kinase Fyn (Homo sapiens) (P06241 2-537 limits assumed): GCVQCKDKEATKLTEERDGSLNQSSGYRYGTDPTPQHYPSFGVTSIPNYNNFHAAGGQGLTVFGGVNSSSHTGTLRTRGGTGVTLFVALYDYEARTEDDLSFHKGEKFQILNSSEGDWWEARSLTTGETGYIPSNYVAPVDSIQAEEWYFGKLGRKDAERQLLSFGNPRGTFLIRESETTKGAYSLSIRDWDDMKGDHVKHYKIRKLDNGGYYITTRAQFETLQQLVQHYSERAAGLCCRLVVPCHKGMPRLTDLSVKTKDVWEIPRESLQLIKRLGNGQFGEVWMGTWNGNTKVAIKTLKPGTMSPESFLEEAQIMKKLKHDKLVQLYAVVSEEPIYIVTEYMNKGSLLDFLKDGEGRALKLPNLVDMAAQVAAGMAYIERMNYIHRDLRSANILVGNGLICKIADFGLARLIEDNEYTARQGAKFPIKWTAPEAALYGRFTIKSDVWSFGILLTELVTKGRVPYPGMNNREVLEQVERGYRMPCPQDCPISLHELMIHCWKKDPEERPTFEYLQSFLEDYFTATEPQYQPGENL

[25] = biological target: Ribosomal protein S6 kinase alpha-6 (Homo sapiens) (UniProt Q9UK32); conditions: Compound concentration 1000.0 nM
[26] = biological target: Serine/threonine-protein kinase D3 (Homo sapiens) (UniProt O94806); conditions: Compound concentration 1000.0 nM
[27] = biological target: Histamine H2 receptor (Homo sapiens) (UniProt P25021); conditions: Compound concentration 10.0 uM
[28] = biological target: Focal adhesion kinase 1 (Homo sapiens) (UniProt Q05397); conditions: Compound concentration 1000.0 nM
[29] = biological target: Serine/threonine-protein kinase WNK3 (Homo sapiens) (UniProt Q9BYP7); conditions: Compound concentration 1000.0 nM
Chain of Serine/threonine-protein kinase WNK3 (Homo sapiens) (Q9BYP7 whole entry): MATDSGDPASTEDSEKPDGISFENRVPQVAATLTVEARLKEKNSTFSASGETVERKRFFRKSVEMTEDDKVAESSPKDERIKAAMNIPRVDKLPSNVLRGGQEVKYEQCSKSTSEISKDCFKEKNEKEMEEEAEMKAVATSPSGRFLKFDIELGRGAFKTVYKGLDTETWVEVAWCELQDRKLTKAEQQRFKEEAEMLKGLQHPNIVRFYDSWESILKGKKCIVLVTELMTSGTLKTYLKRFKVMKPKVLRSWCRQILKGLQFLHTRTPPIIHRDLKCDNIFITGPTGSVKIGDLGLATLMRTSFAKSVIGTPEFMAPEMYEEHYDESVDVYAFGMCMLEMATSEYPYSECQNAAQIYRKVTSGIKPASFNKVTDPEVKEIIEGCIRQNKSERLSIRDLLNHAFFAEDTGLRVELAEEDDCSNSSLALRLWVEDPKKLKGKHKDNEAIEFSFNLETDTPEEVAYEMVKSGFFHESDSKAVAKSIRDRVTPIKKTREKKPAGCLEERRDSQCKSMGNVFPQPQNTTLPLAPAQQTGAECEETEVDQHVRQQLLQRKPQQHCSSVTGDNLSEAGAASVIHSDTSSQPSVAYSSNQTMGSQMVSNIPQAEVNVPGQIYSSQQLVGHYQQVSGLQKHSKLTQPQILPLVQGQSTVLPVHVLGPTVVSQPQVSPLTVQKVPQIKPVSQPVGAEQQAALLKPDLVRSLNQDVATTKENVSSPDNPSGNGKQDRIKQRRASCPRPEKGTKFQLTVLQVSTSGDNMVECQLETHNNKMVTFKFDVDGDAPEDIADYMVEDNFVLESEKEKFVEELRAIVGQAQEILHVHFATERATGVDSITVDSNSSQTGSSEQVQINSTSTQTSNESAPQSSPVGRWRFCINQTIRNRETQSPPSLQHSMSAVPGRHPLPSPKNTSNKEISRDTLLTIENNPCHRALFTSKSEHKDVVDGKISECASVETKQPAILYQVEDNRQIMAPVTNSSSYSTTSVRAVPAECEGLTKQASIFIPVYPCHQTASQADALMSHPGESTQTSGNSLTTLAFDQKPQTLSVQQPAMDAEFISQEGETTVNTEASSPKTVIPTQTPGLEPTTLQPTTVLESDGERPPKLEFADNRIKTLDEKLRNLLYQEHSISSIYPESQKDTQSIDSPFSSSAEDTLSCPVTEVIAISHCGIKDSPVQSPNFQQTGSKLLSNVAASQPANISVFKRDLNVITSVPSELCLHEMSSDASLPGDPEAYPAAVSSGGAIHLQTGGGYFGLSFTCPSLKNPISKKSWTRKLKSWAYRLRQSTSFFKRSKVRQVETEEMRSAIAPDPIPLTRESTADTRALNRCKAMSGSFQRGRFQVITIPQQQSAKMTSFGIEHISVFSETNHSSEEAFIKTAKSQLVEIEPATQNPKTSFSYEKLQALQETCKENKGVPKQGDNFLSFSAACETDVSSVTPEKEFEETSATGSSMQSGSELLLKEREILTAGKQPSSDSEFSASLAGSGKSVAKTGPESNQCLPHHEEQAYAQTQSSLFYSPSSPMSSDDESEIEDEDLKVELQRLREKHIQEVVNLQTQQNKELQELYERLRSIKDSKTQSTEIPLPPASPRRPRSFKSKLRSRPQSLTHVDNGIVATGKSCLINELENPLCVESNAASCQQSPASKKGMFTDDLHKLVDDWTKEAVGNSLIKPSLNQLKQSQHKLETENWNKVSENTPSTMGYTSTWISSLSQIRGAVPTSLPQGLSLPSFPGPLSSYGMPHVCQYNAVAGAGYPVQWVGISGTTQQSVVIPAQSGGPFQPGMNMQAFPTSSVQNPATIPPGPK

[30] = biological target: Serine/threonine-protein kinase BRSK1 (Homo sapiens) (UniProt Q8TDC3); conditions: Compound concentration 1000.0 nM
[31] = system: Receptor-type tyrosine-protein kinase FLT3 (Homo sapiens), P36888 [D835V]; conditions: Compound concentration 1000.0 nM
[32] = biological target: Tyrosine-protein kinase Fes/Fps (Homo sapiens) (UniProt P07332); conditions: Compound concentration 1000.0 nM
[33] = biological target: Ephrin type-A receptor 6 (Homo sapiens) (UniProt Q9UF33); conditions: Compound concentration 1000.0 nM
[34] = biological target: Calcium/calmodulin-dependent protein kinase kinase 2 (Homo sapiens) (UniProt Q96RR4); conditions: Compound concentration 1000.0 nM
[35] = biological target: Citron Rho-interacting kinase (Homo sapiens) (UniProt O14578); conditions: Compound concentration 1000.0 nM
[36] = biological target: Serine/threonine-protein kinase STK11 (Homo sapiens) (UniProt Q15831); conditions: Compound concentration 1000.0 nM
[37] = biological target: Megakaryocyte-associated tyrosine-protein kinase (Homo sapiens) (UniProt P42679); conditions: Compound concentration 1000.0 nM
[38] = biological target: Tyrosine-protein kinase Fer (Homo sapiens) (UniProt P16591); conditions: Compound concentration 1000.0 nM
[39] = biological target: Receptor tyrosine-protein kinase erbB-4 (Homo sapiens) (UniProt Q15303); conditions: Compound concentration 1000.0 nM
[40] = biological target: Serine/threonine-protein kinase Nek7 (Homo sapiens) (UniProt Q8TDX7); conditions: Compound concentration 1000.0 nM
Chain of Serine/threonine-protein kinase Nek7 (Homo sapiens) (Q8TDX7 whole entry, looked up, the tested form may be a part): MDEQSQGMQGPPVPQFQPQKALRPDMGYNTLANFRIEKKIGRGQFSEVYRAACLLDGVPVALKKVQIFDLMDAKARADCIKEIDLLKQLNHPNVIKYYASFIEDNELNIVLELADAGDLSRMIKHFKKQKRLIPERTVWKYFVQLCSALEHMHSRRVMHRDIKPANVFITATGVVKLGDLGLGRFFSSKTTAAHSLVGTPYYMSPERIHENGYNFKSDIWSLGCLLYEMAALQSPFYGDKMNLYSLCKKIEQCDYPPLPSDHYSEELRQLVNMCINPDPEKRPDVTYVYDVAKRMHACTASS

[41] = biological target: Phosphatidylinositol 4-phosphate 3-kinase C2 domain-containing subunit beta (Homo sapiens) (UniProt O00750); conditions: Compound concentration 1000.0 nM
[42] = biological target: Serine/threonine-protein kinase RIO1 (Homo sapiens) (UniProt Q9BRS2); conditions: Compound concentration 1000.0 nM
[43] = biological target: Ribosomal protein S6 kinase alpha-3 (Homo sapiens) (UniProt P51812); conditions: Compound concentration 1000.0 nM
Chain of Ribosomal protein S6 kinase alpha-3 (Homo sapiens) (P51812 whole entry): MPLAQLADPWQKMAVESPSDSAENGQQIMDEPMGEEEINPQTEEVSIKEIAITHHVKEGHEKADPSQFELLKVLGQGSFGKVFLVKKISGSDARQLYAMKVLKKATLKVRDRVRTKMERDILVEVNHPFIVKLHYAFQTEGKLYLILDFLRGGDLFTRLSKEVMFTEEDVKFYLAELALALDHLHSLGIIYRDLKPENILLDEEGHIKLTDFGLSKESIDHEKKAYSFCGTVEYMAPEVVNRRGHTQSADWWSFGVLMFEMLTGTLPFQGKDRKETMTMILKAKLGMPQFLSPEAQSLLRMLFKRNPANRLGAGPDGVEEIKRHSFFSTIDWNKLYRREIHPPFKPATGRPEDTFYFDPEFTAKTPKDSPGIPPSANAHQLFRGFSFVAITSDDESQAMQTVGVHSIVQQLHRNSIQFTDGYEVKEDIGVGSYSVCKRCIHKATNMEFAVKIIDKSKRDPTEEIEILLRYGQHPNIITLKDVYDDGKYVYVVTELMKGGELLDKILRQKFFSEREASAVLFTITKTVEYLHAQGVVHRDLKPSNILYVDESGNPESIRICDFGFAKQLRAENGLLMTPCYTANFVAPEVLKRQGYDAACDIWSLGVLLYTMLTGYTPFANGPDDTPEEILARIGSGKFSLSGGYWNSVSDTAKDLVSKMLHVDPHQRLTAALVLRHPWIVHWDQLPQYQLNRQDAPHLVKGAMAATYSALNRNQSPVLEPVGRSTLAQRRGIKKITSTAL

[44] = biological target: Mitogen-activated protein kinase kinase kinase kinase 4 (Homo sapiens) (UniProt O95819); conditions: Compound concentration 1000.0 nM
[45] = biological target: Activin receptor type-1-like (Homo sapiens) (UniProt P37023); conditions: Compound concentration 1000.0 nM
Chain of Activin receptor type-1-like (Homo sapiens) (P37023 whole entry): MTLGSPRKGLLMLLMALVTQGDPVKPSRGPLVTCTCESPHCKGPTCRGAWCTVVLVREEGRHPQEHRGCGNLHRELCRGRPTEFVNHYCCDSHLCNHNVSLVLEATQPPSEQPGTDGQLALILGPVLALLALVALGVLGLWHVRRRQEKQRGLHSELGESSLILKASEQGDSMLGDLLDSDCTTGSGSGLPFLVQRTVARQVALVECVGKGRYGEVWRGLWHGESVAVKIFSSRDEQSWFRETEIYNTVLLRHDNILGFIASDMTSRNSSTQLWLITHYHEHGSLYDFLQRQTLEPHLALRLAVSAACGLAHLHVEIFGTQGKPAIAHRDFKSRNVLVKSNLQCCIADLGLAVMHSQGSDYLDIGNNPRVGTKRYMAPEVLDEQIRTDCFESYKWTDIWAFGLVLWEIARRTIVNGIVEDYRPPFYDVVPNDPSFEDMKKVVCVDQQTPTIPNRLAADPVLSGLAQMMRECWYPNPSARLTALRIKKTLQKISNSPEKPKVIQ

[46] = biological target: Protein kinase C eta type (Homo sapiens) (UniProt P24723); conditions: Compound concentration 1000.0 nM

SMILES: O=C(NC[C@@H]1[C@H]2CN(C(=O)OCc3cc(C(F)(F)F)cc(C(F)(F)F)c3)C[C@@H]12)c1ccc2[nH]nnc2c1 [BI 2545]
- residual activity [1]: 99%
- residual activity [2]: 100%
- residual activity [3]: 100%
- residual activity [4]: 94%
- residual activity [5]: 91%
- residual activity [6]: 94%
- residual activity [7]: 84%
- residual activity [8]: 83%
- residual activity [9]: 91%
- residual activity [10]: 80%
- residual activity [11]: 100%
- residual activity [12]: 91%
- residual activity [13]: 100%
- residual activity [14]: 71%
- residual activity [15]: 98%
- residual activity [16]: 100%
- residual activity [17]: 100%
- residual activity [18]: 100%
- inhibition [19]: 43%
- residual activity [20]: 100%
- residual activity [21]: 92%
- residual activity [22]: 84%
- residual activity [23]: 45%
- residual activity [24]: 85%
- residual activity [25]: 67%
- residual activity [26]: 83%
- inhibition [27]: 28.1%
- residual activity [28]: 100%
- residual activity [29]: 100%
- residual activity [30]: 89%
- residual activity [31]: 100%
- residual activity [32]: 95%
- residual activity [33]: 69%
- residual activity [34]: 91%
- residual activity [35]: 100%
- residual activity [36]: 100%
- residual activity [37]: 100%
- residual activity [38]: 97%
- residual activity [39]: 100%
- residual activity [40]: 83%
- residual activity [41]: 65%
- residual activity [42]: 69%
- residual activity [43]: 89%
- residual activity [44]: 100%
- residual activity [45]: 100%
- residual activity [46]: 100%

SMILES: Cc1nccc(COC(=O)N2C[C@@H]3[C@@H](CNC(=O)c4ccc5[nH]nnc5c4)[C@@H]3C2)n1 [BI 3017]
- residual activity [1]: 82%
- residual activity [2]: 89%
- residual activity [3]: 78%
- residual activity [4]: 91%
- residual activity [5]: 100%
- residual activity [6]: 76%
- residual activity [7]: 94%
- residual activity [8]: 92%
- residual activity [9]: 70%
- residual activity [10]: 100%
- residual activity [11]: 92%
- residual activity [12]: 82%
- residual activity [13]: 100%
- residual activity [14]: 100%
- residual activity [15]: 93%
- residual activity [16]: 54%
- residual activity [17]: 94%
- residual activity [18]: 100%
- inhibition [19]: 12.1%
- residual activity [20]: 100%
- residual activity [21]: 69%
- residual activity [22]: 93%
- residual activity [23]: 70%
- residual activity [24]: 100%
- residual activity [25]: 100%
- residual activity [26]: 100%
- inhibition [27]: -0.15%
- residual activity [28]: 100%
- residual activity [29]: 91%
- residual activity [30]: 100%
- residual activity [31]: 79%
- residual activity [32]: 99%
- residual activity [33]: 98%
- residual activity [34]: 100%
- residual activity [35]: 100%
- residual activity [36]: 100%
- residual activity [37]: 94%
- residual activity [38]: 100%
- residual activity [39]: 100%
- residual activity [40]: 100%
- residual activity [41]: 97%
- residual activity [42]: 100%
- residual activity [43]: 86%
- residual activity [44]: 99%
- residual activity [45]: 100%
- residual activity [46]: 98%
